{
  "source": "patent US11986462B2",
  "about": "“Use of tacrolimus in preparation of medicament for initiating tissue regeneration function” (priority 2020, dated 2024)",
  "key": {"[1]": {"test_system": "calcineurin", "test": "Determination of calcineurin activity in caudal fin tissues (malachite green, RII peptide substrate)", "type": "in vivo, zebrafish", "conditions": "3 μM tacrolimus in culture solution, vs DMSO control group non-regenerative tissues", "protocol": "4. […] Free phosphate in the sample was removed, the phosphorylated RII peptide was added, and the sample was incubated at 30° C. for 30 min. Malachite green as a phosphate indicator was added, and the amount of free phosphate in the sample was determined using a SpectraMax® iD3 multi-mode microplate reader (Molecular Devices, USA). The calcineurin activity was normalized to a total protein concentration."}, "[2]": {"conditions": "in the human body; cited from earlier work"}, "[3]": {"conditions": "cited from earlier work"}, "[4]": {"test_system": "distal caudal fin tissue of a zebrafish", "test": "Tissue regeneration experiment of distal caudal fin of zebrafish (wound model)", "type": "in vivo", "conditions": "3 μM tacrolimus in culture solution, adult zebrafish, 1, 3 and 5 days after amputation, vs DMSO control", "protocol": "1. Experimental fish lines and culturing method are as follows: a wild-type (AB) fish was used as an experimental fish, stored in a flowing water tank at 28±0.5° C. with a pH=7±0.5, a conductivity of an aquaculture water was […]; and a photoperiod was 14 h of lighting and 10 h of darkness. Fresh sandworms were fed three times a day. Raising was conducted in accordance with the guidelines of the Ministry of Science and Technology of the People's Republic of China on the cultivation of experimental animals (2006); all fishes were kept under standard laboratory conditions. 2. Wound model construction is as follows: an adult zebrafish was lightly anesthetized in an anesthetic supplemented with tricaine and placed in a 1.5 g/100 mL agarose tank. A tissue with a length of 2-3 joints and a width of two fin rays on caudal fin surface was excavated using a scalpel blade; a hole was exposed on the caudal fin surface to form a damaged tissue containing a proximal wound and a distal wound. Proximal regenerative tissues were daily removed to prevent the hole from being filled. A regeneration status of the caudal fin was imaged and recorded using a Zeiss Discovery […] microscope (Carl Zeiss, Germany). 3. […]"}},
  "data": [
    {"compound": "C=CC[C@@H]1/C=C(\\C)C[C@H](C)C[C@H](OC)[C@H]2O[C@@](O)(C(=O)C(=O)N3CCCC[C@H]3C(=O)O[C@H](/C(C)=C/[C@@H]3CC[C@@H](O)[C@H](OC)C3)[C@H](C)[C@@H](O)CC1=O)[C@H](C)C[C@@H]2OC", "note": "[tacrolimus, Tacrolimus]", "values": [
      {"measurement": "calcineurin activity in tissue, normalized to total protein concentration", "setting": "[1]", "result": "lower than that of the non-regenerative tissues"},
      {"measurement": "half-life", "setting": "[2]", "result": 10.7, "unit": "h"},
      {"measurement": "stability in aqueous solution", "setting": "[3]", "result": "extremely-unstable in aqueous solution and can be rapidly degraded"},
      {"measurement": "regeneration of non-regenerative distal caudal fin tissue", "setting": "[4]", "result": "the distal tissue regeneration was initiated"}
    ]}
  ]
}
